Laboratory results taken from PubChem BioAssay AID1963844 (Molecular Pharmacology Branch, DTP, NCI, 2024).
Where “and” joins values, the source holds several entries; their conditions need not be identical. Identical values can stand only once.

Test system: 422866-222-R5-J1-PDC complex spheroid viability
Experiment: Anticancer human tumor 422866-222-R5-J1-PDC patient-derived pancreatic adenocarcinoma cell line growth inhibition [POLQ]
Details: for viability, T/C: stronger effect = lower value
Method: Multicellular complex tumor spheroid response to Polymerase (POL) inhibitors (novobiocin, ART-558, RP6685) in combination with a variety of drugs and investigational agents in selected tumor cell lines
The POL inhibitors (novobiocin, ART-558, and RP6685) were evaluated both individually and in combination with standard of care and investigational anticancer small molecules within a complex spheroid model of solid tumors. . Complex spheroids include a stromal component modeled by human endothelial cells (HUVEC) and fibroblasts modeled by human mesenchymal stem cells (MSCs). The concentration ranges selected for each drug and investigational agent were based upon clinically achievable concentrations if the clinical Cmax of the agent was known.
Compounds. The drugs and investigational agents: novobiocin (NSC847541), ART-558 (NSC835418), RP-6685 (NSC848927), peposertib (NSC802822), ceralasertib (NSC780249), elimusertib (NSC800525), camonsertib (NSC841442), AZD-1390 (NSC803789), olaparib (NSC753686), talazoparib (NSC767125), rucaparib (NSC756644), sotorasib (NSC818433), MRTX-1133 (NSC836407), SN-38 (NSC673596), topotecan (NSC609699), epotoside (NSC141540), doxorubicin (NSC123127), gemcitabine (NSC613327), 5-fluorouracil (NSC19893), paclitaxel (NSC125973), vemurafenib (NSC761431), MSA-2 (NSC828583), SN-011 (NSC837082), adavosertib (NSC754352), prexasertib (NSC758257), carboplatin (NSC241240) and oxaliplatin (NSC266046), were obtained from the National Cancer Institute (NCI) Developmental Therapeutics Program Chemical Repository (21). The FDA-approved anticancer drug set is available from the Developmental Therapeutics Program at https://dtp.cancer.gov/organization/dscb/obtaining/. […] The stock solutions were prepared in dimethyl sulfoxide (DMSO, Sigma-Aldrich, St. Louis, MO, cat. D2650), except for the platinum compounds which were prepared in saline (Quality Biological, Gaithersburg, MD, cat. 114-055-101), at 800-fold the tested concentration and stored at -70 degrees C prior to their use. All drugs and investigational agents were tested over a range starting from a high concentration at or near the clinical Cmax and decreasing in half-log increments. If the clinical Cmax for an agent had not been determined, the highest concentration tested was 10 microM, except for SN-38, which was tested at a high concentration of 1 microM.
Cell Culture. All cells were maintained in an incubator at 37 degrees C and 5% CO2 with 95% humidity. The PDC lines were cultured according to standard operating procedures established by the NCI PDMR (https://pdmr.cancer.gov). Table 3 of the manuscript, lists the cell lines along with the number of the three cell types plated to form the mct-spheroids and media for tumor cell growth. After thawing, all PDC lines, except 997537-175-T-J1-PDC and 415267-285-R-J2-PDC, were cultured in Matrigel-coated flasks prepared with a working solution of 1X Ham's F-12 nutrient mix, without supplementation (Thermo Fisher Scientific, cat. 11765054), 100 U/mL penicillin-streptomycin (Thermo Fisher Scientific, cat. 15140122), and 2.5% Matrigel (Corning Inc., Corning, NY, cat. 354248) for the first three passages. The two PDC lines 997537-175-T-J1-PDC and 415267-285-R-J2-PDC were cultured on uncoated flasks. The 857933-349-R-J2-PDC line was cultured in 6C/Colon 1B media containing advanced DMEM/F-12 (Thermo Fisher Scientific, cat. 12634028), 10 mM HEPES (Thermo Fisher Scientific, cat. 15630080), 1X GlutaMAX supplement (Thermo Fisher Scientific, cat. 35050061), 0.1 mg/mL primocin (InvivoGen, San Diego, CA, cat. ant-pm-2), 10% defined fetal bovine serum, heat inactivated (HyClone Laboratories Inc., Logan, UT, cat. SH30070.03HI), 50% L-WRN conditioned media (ATCC, cat. CRL-3276), 1.25 mM N-Acetyl-L-cysteine (Sigma-Aldrich, cat. A9165), 10 mM nicotinamide (Sigma-Aldrich, cat. N0636), 1X B-27 supplement (Thermo Fisher Scientific, cat. 17504044), 1X N-2 supplement (Thermo Fisher Scientific, cat. […]
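Also: spheroids exposed to compounds for one week before readout.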
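For viability, T/C in this document: percent of DMSO vehicle wells luminescence so 100% = untreated viability.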

SMILES: CCc1cc2c(N3CCc4c(cc(Cn5ccnc5)cc4-c4cn(C)nc4C(F)(F)F)C3=O)ccnc2c(OC)n1
- viability, T/C (compound 0.0316 µM): 93.7% and 75.7% and 82.9%
- viability, T/C (compound 0.1 µM): 81% and 78.8% and 84.5%
- viability, T/C (compound 0.316 µM): 89.8% and 81.5% and 92.5%
- viability, T/C (compound 1 µM): 117% and 113% and 99.8%
- viability, T/C (compound 3.16 µM): 129% and 108% and 106%
- viability, T/C (compound 10 µM): 108% and 87.1% and 92.4%
- IC50 (curve of compound): > 10000 nM

SMILES: C=CCn1c(=O)c2cnc(Nc3ccc(N4CCN(C)CC4)cc3)nc2n1-c1cccc(C(C)(C)O)n1
- viability, T/C (compound 0.00316 µM): 86.1% and 96.9% and 101%
- viability, T/C (compound 0.01 µM): 105% and 93% and 107%
- viability, T/C (compound 0.0316 µM): 105% and 93.5% and 83.3%
- viability, T/C (compound 0.1 µM): 85.7% and 91% and 78.1%
- viability, T/C (compound 0.316 µM): 56% and 43.9% and 56.5%
- viability, T/C (compound 1 µM): 36% and 31% and 34.6%
- IC50 (curve of compound): 434 nM and 272 nM and 446 nM

SMILES: COc1cccc(OCCCN)c1-c1cc(Nc2cnc(C#N)cn2)n[nH]1 + COC1C(OC(N)=O)C(O)C(Oc2ccc3c(O)c(NC(=O)c4ccc(O)c(CC=C(C)C)c4)c(=O)oc3c2C)OC1(C)C
- IC50 (curve of first compound, second compound 0.0316 µM): 4.59 nM
- IC50 (curve of first compound, second compound 0.1 µM): 4.16 nM
- IC50 (curve of first compound, second compound 0.316 µM): < 3.16 nM
- IC50 (curve of first compound, second compound 1 µM): < 3.16 nM
- IC50 (curve of first compound, second compound 3.16 µM): 5.14 nM
- IC50 (curve of first compound, second compound 10 µM): < 3.16 nM
- viability, T/C (second compound 0.0316 µM, first compound 0.00316 µM): 55.9%
- viability, T/C (second compound 0.0316 µM, first compound 0.01 µM): 37.4%
- viability, T/C (second compound 0.0316 µM, first compound 0.0316 µM): 33.7%
- viability, T/C (second compound 0.0316 µM, first compound 0.1 µM): 30.7%
- viability, T/C (second compound 0.0316 µM, first compound 0.316 µM): 26.7%
- viability, T/C (second compound 0.0316 µM, first compound 1 µM): 34.3%
- viability, T/C (second compound 0.1 µM, first compound 0.00316 µM): 53%
- viability, T/C (second compound 0.1 µM, first compound 0.01 µM): 42.1%
- viability, T/C (second compound 0.1 µM, first compound 0.0316 µM): 32.3%
- viability, T/C (second compound 0.1 µM, first compound 0.1 µM): 29.5%
- viability, T/C (second compound 0.1 µM, first compound 0.316 µM): 26.8%
- viability, T/C (second compound 0.1 µM, first compound 1 µM): 42.6%
- viability, T/C (second compound 0.316 µM, first compound 0.00316 µM): 48.5%
- viability, T/C (second compound 0.316 µM, first compound 0.01 µM): 39.9%
- viability, T/C (second compound 0.316 µM, first compound 0.0316 µM): 28.5%
- viability, T/C (second compound 0.316 µM, first compound 0.1 µM): 37.7%
- viability, T/C (second compound 0.316 µM, first compound 0.316 µM): 32.1%
- viability, T/C (second compound 0.316 µM, first compound 1 µM): 35.1%
- viability, T/C (second compound 1 µM, first compound 0.00316 µM): 55.9%
- viability, T/C (second compound 1 µM, first compound 0.01 µM): 39.3%
- viability, T/C (second compound 1 µM, first compound 0.0316 µM): 32.7%
- viability, T/C (second compound 1 µM, first compound 0.1 µM): 37.3%
- viability, T/C (second compound 1 µM, first compound 0.316 µM): 32.7%
- viability, T/C (second compound 1 µM, first compound 1 µM): 47%
- viability, T/C (second compound 3.16 µM, first compound 0.00316 µM): 54.7%
- viability, T/C (second compound 3.16 µM, first compound 0.01 µM): 43%
- viability, T/C (second compound 3.16 µM, first compound 0.0316 µM): 41.4%
- viability, T/C (second compound 3.16 µM, first compound 0.1 µM): 30.1%
- viability, T/C (second compound 3.16 µM, first compound 0.316 µM): 41.2%
- viability, T/C (second compound 3.16 µM, first compound 1 µM): 32.8%
- viability, T/C (second compound 10 µM, first compound 0.00316 µM): 54.2%
- viability, T/C (second compound 10 µM, first compound 0.01 µM): 38.7%
- viability, T/C (second compound 10 µM, first compound 0.0316 µM): 39.1%
- viability, T/C (second compound 10 µM, first compound 0.1 µM): 38%
- viability, T/C (second compound 10 µM, first compound 0.316 µM): 30.9%
- viability, T/C (second compound 10 µM, first compound 1 µM): 38.4%

SMILES: CC[C@@]1(O)C(=O)OCc2c1cc1n(c2=O)Cc2cc3c(CN(C)C)c(O)ccc3nc2-1
- viability, T/C (compound 0.000316 µM): 104% and 91% and 103%
- viability, T/C (compound 0.001 µM): 106% and 95.4% and 94.5%
- viability, T/C (compound 0.00316 µM): 88% and 77% and 98.9%
- viability, T/C (compound 0.01 µM): 70.4% and 68.2% and 68.5%
- viability, T/C (compound 0.0316 µM): 48.4% and 37.3% and 41.3%
- viability, T/C (compound 0.1 µM): 36% and 32.2% and 33.8%
- IC50 (curve of compound): 28.8 nM and 20 nM and 21.1 nM

SMILES: COc1cc(C2c3cc4c(cc3C(OC3OC5COC(C)OC5C(O)C3O)C3COC(=O)C23)OCO4)cc(OC)c1O (stereo not given)
- viability, T/C (compound 0.0316 µM): 90.2% and 97.7% and 97.4%
- viability, T/C (compound 0.1 µM): 95% and 86.7% and 97.1%
- viability, T/C (compound 0.316 µM): 79.5% and 59.3% and 73.2%
- viability, T/C (compound 1 µM): 54.9% and 45.2% and 52.5%
- viability, T/C (compound 3.16 µM): 37% and 39.4% and 37.1%
- viability, T/C (compound 10 µM): 33.3% and 33.2% and 28.4%
- IC50 (curve of compound): 1340 nM and 667 nM and 1150 nM
